Results published in ChEMBL document CHEMBL6074620, “Discovery of a triphenylamine-based ligand that targets mitochondrial DNA G-quadruplexes and activates the cGAS-STING immunomodulatory pathway” (Eur J Med Chem, 2024).
Active and inactive are the calls of the source. The calls are words filed in the database; no cut-off is given here.

Legend:
4T1 [1] = assay: Induction of mitochondrial damage in mouse 4T1 cells assessed as decrease in ND4 level at 5 uM in presence of DDC by qPCR analysis; format: functional, cell-based
4T1 [2] = assay: Antitumor activity against mouse 4T1 cells implanted with female BALB/c mouse assessed as effect on PARP level in tumor at 2.5 mg/kg, sc measured for 21 days; format: functional, organism-based; settings: time 21.0 day
[3] = Toxicity in female BALB/c mouse implanted with mouse 4T1 cells assessed as body weight loss at 2.5 mg/kg, sc measured every other day for 21 days; format: organism-based; settings: in vivo, 504 h, time 21 day
Mus musculus [4] = assay: Immunostimulatory activity in female BALB/c mouse implanted with mouse 4T1 cells assessed as change in CD4+ T cells in spleen 2.5 mg/kg, sc by flow cytometry; format: functional, organism-based
4T1 [5] = assay: Induction of mitochondrial damage in mouse 4T1 cells assessed as increase in CytB level by qPCR analysis; format: functional, cell-based
4T1 [6] = assay: Activation of cGAS-STING signaling pathway in mouse 4T1 cells assessed as increase in IL-6 level up to 5 uM by ELISA analysis; format: cell-based; settings: filed as activator
4T1 [7] = assay: Induction of mitochondrial damage in mouse 4T1 cells assessed as increase in ND4 level by qPCR analysis; format: functional, cell-based
Quadruplex DNA [8] = assay: Stabilization of fluorescently labelled G4-quadruplex mt6363 DNA (unknown origin) assessed as effect on thermal stability of DNA structure by measuring change in melting temperature at 1 uM by FRET melting assay; format: nucleic-acid assay
MDA-MB-231 = assay: Cytotoxicity against human MDA-MB-231 cells assessed as reduction in cell viability incubated for 24 hrs by CCK-8 assay; format: functional, cell-based; settings: MDA-MB-231, 24 h
4T1 [9] = assay: Activation of cGAS-STING signaling pathway in mouse 4T1 cells assessed as […] in TBK1 phosphorylation up to 5 uM by Western blot analysis; format: cell-based; settings: filed as activator
[10] = Toxicity in female BALB/c mouse implanted with mouse 4T1 cells assessed as change in kidney weight at 2.5 mg/kg, sc measured after 21 days by Hematoxylin-Eosin staining based analysis; format: organism-based; settings: in vivo, 504 h, time 21 day
4T1 [11] = assay: Induction of apoptosis in mouse 4T1 cells assessed as decrease in caspase-3 level at 5 uM by Western blotting analysis; format: functional, cell-based
[12] = Toxicity in female BALB/c mouse implanted with mouse 4T1 cells assessed as change in lungs weight at 2.5 mg/kg, sc measured after 21 days by Hematoxylin-Eosin staining based analysis; format: organism-based; settings: in vivo, 504 h, time 21 day
4T1 [13] = assay: Induction of mitochondrial damage DNA in mouse 4T1 cells assessed as reduction in mtDNA by qPCR analysis; format: functional, cell-based
4T1 [14] = assay: Induction of apoptosis in mouse 4T1 cells assessed as decrease in PARP level at 5 uM by Western blotting analysis; format: functional, cell-based
4T1 [15] = assay: Activation of cGAS-STING signaling pathway in mouse 4T1 cells assessed as […] in IRF3 phosphorylation up to 5 uM by Western blot analysis; format: cell-based; settings: filed as activator
Mus musculus [16] = assay: Immunostimulatory activity in female BALB/c mouse implanted with mouse 4T1 cells assessed as increase in number of activated CD8+ T cells in spleen 2.5 mg/kg, sc by flow cytometry; format: functional, organism-based
4T1 [17] = assay: Activation of cGAS-STING signaling pathway in mouse 4T1 cells assessed as increase in ISG54 level at 5 uM by qPCR analysis; format: cell-based; settings: filed as activator
4T1 [18] = assay: Activation of cGAS-STING signaling pathway in mouse 4T1 cells assessed as increase in IFN-beta level at 5 uM by qPCR analysis; format: cell-based; settings: filed as activator
Mitochondrial membrane [19] = assay: Disruption of mitochondrial membrane potential in mouse 4T1 cells assessed as increase green fluorescence at 0 to 5 uM by JC-1 staining based analysis; settings: dose 0-5 µM
[20] = Cytotoxicity against human MCF-10A assessed as cell growth inhibition incubated for 24 hrs by CCK-8 assay; format: toxicity, cell-based; settings: MCF-10A cells
Quadruplex DNA [21] = assay: Binding affinity to 5-terminal mt6363 DNA (unknown origin) assessed as dissociation constant by TAMRA-labeled G4 quenching assay; format: nucleic-acid assay
Mus musculus [22] = assay: In-vivo activation of cGAS-STING signaling pathway in female BALB/c mouse assessed as increase in IFN-beta level at 2.5 mg/kg, sc by ELISA analysis; format: functional, organism-based
Mus musculus [23] = assay: In-vivo activation of cGAS-STING signaling pathway in female BALB/c mouse assessed as increase in TNF-alpha level at 2.5 mg/kg, sc by ELISA analysis; format: functional, organism-based
4T1 [24] = assay: Induction of mitochondrial damage in mouse 4T1 cells assessed as decrease in Dloop2 level at 5 uM in presence of DDC by qPCR analysis; format: functional, cell-based
[25] = Toxicity in female BALB/c mouse implanted with mouse 4T1 cells assessed as change in heart weight at 2.5 mg/kg, sc measured after 21 days by Hematoxylin-Eosin staining based analysis; format: organism-based; settings: in vivo, 504 h, time 21 day
Quadruplex DNA [26] = assay: Binding affinity to G4-quadruplex mt6363 DNA (unknown origin) at 10 uM by fluorescence based analysis; format: nucleic-acid assay
4T1 [27] = assay: Induction of ROS generation in mouse 4T1 cells assessed as increase green fluorescence by DCFH-DA staining based analysis; format: functional, cell-based
4T1 [28] = assay: Antitumor activity against mouse 4T1 cells implanted with female BALB/c mouse assessed as decrease tumor volume at 2.5 mg/kg, sc administered for every 3 days for 2 weeks from day 7; format: functional, organism-based
4T1 [29] = assay: Induction of mouse 4T1 cell maturation assessed as increase in CD86 positive cells by flow cytometric analysis; format: functional, cell-based; settings: dose <= 5.0 µM
4T1 [30] = assay: Inhibition of tumor metastasis in mouse 4T1 cells assessed as reduction in wound healing after 24 hrs; format: functional, cell-based
4T1 [31] = assay: Induction of ROS generation in mouse 4T1 cells assessed as increase ROS level by DCFH-DA staining based analysis; format: functional, cell-based
4T1 [32] = assay: Antitumor activity against mouse 4T1 cells implanted with female BALB/c mouse assessed as suppression in lung metastasis at 2.5 mg/kg, iv administered every 3 days for 2 weeks from day 7; format: functional, organism-based
Mus musculus [33] = assay: Immunostimulatory activity in female BALB/c mouse implanted with mouse 4T1 cells assessed as downregulation of M2 macrophages level 2.5 mg/kg, sc by flow cytometry analysis; format: functional, organism-based
[34] = Toxicity in female BALB/c mouse implanted with mouse 4T1 cells assessed as change in liver weight at 2.5 mg/kg, sc measured after 21 days by Hematoxylin-Eosin staining based analysis; format: organism-based; settings: in vivo, 504 h, time 21 day
Mitochondrial membrane [35] = assay: Disruption of mitochondrial membrane potential in mouse 4T1 cells assessed as decrease red fluorescence at 0 to 5 uM by JC-1 staining based analysis; settings: dose 0-5 µM
4T1 [36] = assay: Activation of cGAS-STING pathway in mouse 4T1 cells assessed as increase in cGAS expression level by Western blot analysis; format: cell-based; settings: filed as activator, dose <= 5.0 µM
Mus musculus [37] = assay: In-vivo activation of cGAS-STING signaling pathway in female BALB/c mouse assessed as effect on cGAS level in tumor at 2.5 mg/kg, sc by Western blot analysis; format: functional, organism-based
4T1 [38] = assay: Activation of cGAS-STING signaling pathway in mouse 4T1 cells assessed as increase in TNF-alpha level up to 5 uM by ELISA analysis; format: cell-based; settings: filed as activator

ΔTm (Quadruplex DNA [8]): 28.5 °C | Activity (Mitochondrial membrane [19]): Active | Kd (Quadruplex DNA [21]): 2400 nM | Activity (Quadruplex DNA [26]): Active | Activity (Mitochondrial membrane [35]): Active
SMILES: COc1ccc(N(c2ccc(/C=C/C3=[N+](C)c4ccc5ccccc5c4C3(C)C)cc2)c2ccc(OC)cc2)cc1.[I-]
Activity (4T1 [1]): Active | Activity (4T1 [2]): Active | Activity [3]: Non-toxic | Activity (Mus musculus [4]): Active | Activity (4T1 [5]): Active | Activity (4T1 [6]): Active | Activity (4T1 [7]): Active | IC50 (MDA-MB-231): 1800 nM | Activity (4T1 [9]): Active | Activity [10]: Non-toxic | Activity (4T1 [11]): Active | Activity [12]: Non-toxic | Activity (4T1 [13]): Active | Activity (4T1 [14]): Active | Activity (4T1 [15]): Active | Activity (Mus musculus [16]): Active | Activity (4T1 [17]): Active | Activity (4T1 [18]): Active | IC50 at 24 h [20]: 9600 nM | Activity (Mus musculus [22]): Active | Activity (Mus musculus [23]): Active | Activity (4T1 [24]): Active | Activity [25]: Non-toxic | Activity (4T1 [27]): Dose-dependent-effect | Activity (4T1 [28]): Active | Activity (4T1 [29]): Dose-dependent-effect | Activity (4T1 [30]): Active | Activity (4T1 [31]): Active | Activity (4T1 [32]): Active | Activity (Mus musculus [33]): Active | Activity [34]: Non-toxic | Activity (4T1 [36]): Dose-dependent-effect | Activity (Mus musculus [37]): Active | Activity (4T1 [38]): Active
